The numbers were not newly measured in patent publication US5695952A, “Method for producing [Leu^13 ]motilin” (Kyowa Hakko Kogyo Co., Ltd., priority 1986, dated 1997), which cites them from elsewhere.

The conditions of this data set: M. Fujino et al., Chem. Pharm. Bull., 26, 101 (1978).

Turning to `CC[C@H](C)[C@H](NC(=O)[C@@H]1CCCN1C(=O)[C@@H](NC(=O)[C@@H](N)Cc1ccccc1)C(C)C)C(=O)N[C@@H](Cc1ccccc1)C(=O)N[C@H](C(=O)N[C@@H](Cc1ccc(O)cc1)C(=O)NCC(=O)N[C@@H](CCC(=O)O)C(=O)N[C@@H](CC(C)C)C(=O)N[C@@H](CCC(N)=O)C(=O)N[C@@H](CCCNC(=N)N)C(=O)N[C@@H](CCSC)C(=O)N[C@@H](CCC(N)=O)C(=O)N[C@@H](CCC(=O)O)C(=O)N[C@@H](CCCCN)C(=O)N[C@@H](CCC(=O)O)C(=O)N[C@@H](CCCNC(=N)N)C(=O)N[C@@H](CC(N)=O)C(=O)N[C@@H](CCCCN)C(=O)NCC(=O)N[C@@H](CCC(N)=O)C(=O)O)[C@@H](C)O` [motilin], the “motilin activity after oxidation of Met to the sulfoxide form” value is reported as “decreased motilin activity”.
